Reference: publication PMC4109680, “Identification and Preclinical Pharmacology of the γ-Secretase Modulator BMS-869780” (International Journal of Alzheimer's Disease, 2014)

Assays:
Aβ1-x (H4-APPsw) = assay: Aβ1-42, Aβ1-40 and Aβ1-x ELISA in H4-APPsw cultures at high concentrations; format: cell-based, human; settings: overnight
Method: IC50 determinations for Aβ1-42 and Aβ1-40 in H4-APPsw cultures in 384-well format were determined using homogeneous time-resolved fluorescence immunoassays as previously described. The principle of these assays is illustrated in Figures 1(c) and 1(d). In other experiments using H4-APPsw cultures, Aβ was quantified by ELISA; for Aβ1-42 the combination of monoclonal antibodies was 26D6 and 565-HRP; for Aβ1-40 it was TSD and 26D6-HRP, and for Aβ1-x it was 4G8 and 26D6-HRP. In some experiments a novel 4-plex Aβ electrochemiluminescence immunoassay was used (Mesoscale Discovery catalog number N45ZA-1). […] For Aβ in transiently transfected PS1/PS2 dKO fibroblasts, Aβ1-42 was quantified using an ELISA kit (WACO), and Aβ1-40 was quantified by ELISA as described above for H4-APPsw cultures. […] For the rat and mouse experiments illustrated in Figures 7 and 8, brain samples were prepared by solid phase extraction, and endogenous rat brain Aβ1-42 and Aβ1-40 were quantified by ELISA as previously described for wild type mice. […] For brain extracts made in 0.2% diethylamine, Aβ1-42, Aβ1-40, Aβ1-38, and Aβ1-37 concentrations in brain and cell culture samples were determined by fitting the results of immunoassays against calibration curves derived from a range of dilutions of the corresponding synthetic peptides on each assay plate using a quadratic curve fit (Graphpad Prizm 5.0). […]

[1] = Plasma protein bound fraction, rat; format: in vitro ADME
pregnane-X-receptor = molecular target: T1, pregnane-X-receptor (Homo sapiens, UniProt O75469); assay: Pregnane-X-receptor transactivation assay (PXR-TA), luciferase reporter in HepG2 cells; format: cell-based
T1 construct: host or cells: HepG2
T1 sequence (O75469 whole entry): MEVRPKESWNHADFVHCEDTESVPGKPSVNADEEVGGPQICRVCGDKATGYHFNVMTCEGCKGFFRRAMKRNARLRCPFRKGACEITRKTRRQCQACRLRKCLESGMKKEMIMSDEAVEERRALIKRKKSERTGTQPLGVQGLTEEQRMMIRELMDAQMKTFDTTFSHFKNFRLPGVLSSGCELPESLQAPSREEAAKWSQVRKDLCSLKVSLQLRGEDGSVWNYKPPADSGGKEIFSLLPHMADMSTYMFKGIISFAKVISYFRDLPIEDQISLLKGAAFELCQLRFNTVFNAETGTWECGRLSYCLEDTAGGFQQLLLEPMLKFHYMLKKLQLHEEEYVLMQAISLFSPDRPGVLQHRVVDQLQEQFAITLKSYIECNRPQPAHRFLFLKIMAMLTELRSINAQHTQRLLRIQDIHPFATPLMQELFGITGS
Method: Determination of IC50 values for inhibition of secreted alkaline phosphatase (SEAP) was carried out using an H4 cell line stably expressing SEAP. Cells were treated overnight with compounds in 384-well format, and SEAP accumulation in the culture media was quantified using a chemiluminescence substrate. The pregnane-X-receptor transactivation assay (PXR-TA) was based on the methods of Goodwin et al. as described previously. In the 4-day rat study with BMS-869780, tissues were fixed in 10% neutral buffered formalin, embedded in paraffin, sectioned, stained with hematoxylin and eosin, and examined by light microscopy.
Figure 10 BMS-869780 caused PXR activation in vitro and lipidosis in rat liver. (a) PXR activation in the presence of BMS-869780 was evaluated in HepG2 cell cultures using a luciferase transcriptional reporter construct (●), or by assay of CYP3A4 mRNA levels in primary human hepatocyte (PHH) cultures from two individual donors (▲ and ▼). Activation in both assays is expressed as % relative to activation in the presence of rifampicin, 10 μM, in parallel cultures. (b) Liver section from vehicle-dosed rats. (c) Liver section from rats given 4 daily doses of BMS-869780 at 100 mg/kg.

Structure (SMILES)	overall levels of Aβ1-x (Aβ1-x (H4-APPsw))	protein bound fraction [1] [%]	activity in PXR-TA (pregnane-X-receptor)	concentrations at which PXR transcription was activated (pregnane-X-receptor; HepG2 luciferase reporter, relative to rifampicin 10 μM) [nM]
C[C@H](c1ccc(F)cc1CCCC(=O)O)N(c1cc(F)ccc1F)S(=O)(=O)c1ccc(Cl)cc1 [BMS-299897, reference compound]	dramatically reduced all Aβ1-x peptides	–	–	–
COc1cc(Nc2nc3n(n2)CCCC[C@H]3c2ccc(F)cc2)ccc1-n1cnc(Cl)c1 [BMS-869780]	without any decrease in the overall levels of Aβ1-x	99.5	robust activity	≥ 300
